Legend:
[1] = target: T1, hSTING^H232 (Stimulator of interferon genes) (Homo sapiens, UniProt Q86WV6, H232); assay: SPR (KD […]); also ITC (KD […]), DSF and […] Å co-crystal structure; type: binding
T1 construct: gene STING1

[2] = target: T2, hSTING^HAQ (Stimulator of interferon genes) (Homo sapiens, UniProt Q86WV6, R71H/G230A/H232R/R293Q); assay: thermal shift (DSF), ΔTm; type: binding
T2 construct: gene STING1
T2 sequence (Q86WV6 whole entry R71H/G230A/H232R/R293Q): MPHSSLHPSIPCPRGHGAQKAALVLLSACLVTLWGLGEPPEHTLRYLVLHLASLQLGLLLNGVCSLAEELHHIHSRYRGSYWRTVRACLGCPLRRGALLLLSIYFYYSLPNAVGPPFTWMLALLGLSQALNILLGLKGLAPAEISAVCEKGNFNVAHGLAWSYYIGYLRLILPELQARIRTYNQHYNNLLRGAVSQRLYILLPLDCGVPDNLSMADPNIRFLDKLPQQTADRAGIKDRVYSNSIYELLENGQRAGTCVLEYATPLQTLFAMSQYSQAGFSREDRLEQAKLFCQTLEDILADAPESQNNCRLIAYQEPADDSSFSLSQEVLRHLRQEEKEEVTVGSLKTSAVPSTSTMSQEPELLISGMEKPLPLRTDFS

T1 sequence (Q86WV6 whole entry, change not shown): as the sequence (Q86WV6 whole entry R71H/G230A/H232R/R293Q) above, with H71R, A230G, R232H, Q293R counted along it

**Q.** Which results are given for `COc1cc2[se]c(C(=O)CCC(=O)O)cc2cc1OCCCOc1cc2cc(C(=O)CCC(=O)O)[se]c2cc1OC` [diBSP01]?
**A.** Kd [1]: 49 nM; thermal shift (DSF), ΔTm [2]: 27.0 °C

Source: PMC10094158, “Discovery of a photoactivatable dimerized STING agonist based on the benzo[b]selenophene scaffold” (Chemical Science, 2023)
